Reference: PubChem BioAssay AID1918996 (Molecular Pharmacology Branch, DTP, NCI, 2023)
“And” between values parts separate entries of the source, which are not always exact repeats. Equal entries are not always repeated.

Test system: 349418-098-R-PDC complex spheroid growth
Test: Anticancer human tumor 349418-098-R-PDC patient-derived lung adenocarcinoma cell line growth inhibition [AhR]
Details: for viability, T/C: stronger effect = lower value
Method in brief: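 Agents were dosed in half-log steps down from roughly clinical Cmax, or from 10 microM where Cmax was unknown, alone and with AhR antagonists. Read-out: percent test/control growth of tumor spheroids containing HUVEC and MSC stromal cells.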

[1] = curve of first compound, second compound 0.1 µM
[2] = curve of first compound, second compound 0.316 µM
[3] = curve of first compound, second compound 1 µM
[4] = curve of first compound, second compound 3.16 µM
[5] = curve of first compound, second compound 10 µM
[6] = second compound 0.1 µM, first compound 0.0316 µM
[7] = second compound 0.1 µM, first compound 0.1 µM
[8] = second compound 0.1 µM, first compound 0.316 µM
[9] = second compound 0.1 µM, first compound 1 µM
[10] = second compound 0.316 µM, first compound 0.0316 µM
[11] = second compound 0.316 µM, first compound 0.1 µM
[12] = second compound 0.316 µM, first compound 0.316 µM
[13] = second compound 0.316 µM, first compound 1 µM
[14] = second compound 1 µM, first compound 0.0316 µM
[15] = second compound 1 µM, first compound 0.1 µM
[16] = second compound 1 µM, first compound 0.316 µM
[17] = second compound 1 µM, first compound 1 µM
[18] = second compound 3.16 µM, first compound 0.0316 µM
[19] = second compound 3.16 µM, first compound 0.1 µM
[20] = second compound 3.16 µM, first compound 0.316 µM
[21] = second compound 3.16 µM, first compound 1 µM
[22] = second compound 10 µM, first compound 0.0316 µM
[23] = second compound 10 µM, first compound 0.1 µM
[24] = second compound 10 µM, first compound 0.316 µM
[25] = second compound 10 µM, first compound 1 µM
[26] = second compound 0.1 µM, first compound 3.16 µM
[27] = second compound 0.1 µM, first compound 10 µM
[28] = second compound 0.316 µM, first compound 3.16 µM
[29] = second compound 0.316 µM, first compound 10 µM
[30] = second compound 1 µM, first compound 3.16 µM
[31] = second compound 1 µM, first compound 10 µM
[32] = second compound 3.16 µM, first compound 3.16 µM
[33] = second compound 3.16 µM, first compound 10 µM
[34] = second compound 10 µM, first compound 3.16 µM
[35] = second compound 10 µM, first compound 10 µM
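Also: spheroids exposed to agents for seven days before luminescence viability read.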
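For viability, T/C in this document: spheroids also contain HUVEC endothelial cells and human MSC stroma.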

`Nc1ncn(C2CC(O)C(CO)O2)c(=O)n1` (configuration not stated) + Cc1ccccc1N=Nc1ccc(NC(=O)c2ccnn2C)c(C)c1 was tested, and the IC50 [1] was 59 nM, the IC50 [2] was 66.1 nM and the IC50 [3] was 107 nM. The IC50 [4] was 68 nM, the IC50 [5] was 50.5 nM and the viability, T/C (second compound 0.1 µM, first compound 0.00316 µM) was 97.8%. For the same compound, the viability, T/C (second compound 0.1 µM, first compound 0.01 µM) was 103%, the viability, T/C [6] was 66.1% and the viability, T/C [7] was 39.9%. For the same compound, the viability, T/C [8] was 39.1%, the viability, T/C [9] was 30% and the viability, T/C (second compound 0.316 µM, first compound 0.00316 µM) was 77.8%. The viability, T/C (second compound 0.316 µM, first compound 0.01 µM) was 111%, the viability, T/C [10] was 73.1% and the viability, T/C [11] was 38.8%. It also gave a viability, T/C [12] of 37.7%, a viability, T/C [13] of 34.5% and a viability, T/C (second compound 1 µM, first compound 0.00316 µM) of 79.6%. For the same compound, the viability, T/C (second compound 1 µM, first compound 0.01 µM) was 99.2%, the viability, T/C [14] was 69.9% and the viability, T/C [15] was 51.8%. The viability, T/C [16] was 44%, the viability, T/C [17] was 34% and the viability, T/C (second compound 3.16 µM, first compound 0.00316 µM) was 91.1%. It also gave a viability, T/C (second compound 3.16 µM, first compound 0.01 µM) of 74.4%, a viability, T/C [18] of 61% and a viability, T/C [19] of 42.2%. For the same compound, the viability, T/C [20] was 41.3%, the viability, T/C [21] was 34% and the viability, T/C (second compound 10 µM, first compound 0.00316 µM) was 54.7%. For the same compound, the viability, T/C (second compound 10 µM, first compound 0.01 µM) was 61.4%, the viability, T/C [22] was 53.9% and the viability, T/C [23] was 42.8%. For the same compound, the viability, T/C [24] was 37.2% and the viability, T/C [25] was 29.5%.
In the case of `COc1cccc2c1C(=O)c1c(O)c3c(c(O)c1C2=O)CC(O)(C(=O)CO)CC3OC1CC(N)C(O)C(C)O1` (configuration not stated), the viability, T/C (compound 0.0316 µM) is reported as 12.1% and 24.6% and 20.9%, the viability, T/C (compound 0.1 µM) is reported as 7.69% and 19% and 13.3% and the viability, T/C (compound 0.316 µM) is reported as 1.29% and 5.3% and 4.49%. The viability, T/C (compound 1 µM) was 0.27% and 0.62% and 0.79%, the viability, T/C (compound 3.16 µM) was 2.73% and 2.97% and 3.14% and the viability, T/C (compound 10 µM) was 4.37% and 6.2% and 5.59%. It also gave an IC50 (curve of compound) of under 31.6 nM.
Compound `CC1(C)CCC(CN2CCN(c3ccc(C(=O)NS(=O)(=O)c4ccc(NCC5CCOCC5)c([N+](=O)[O-])c4)c(Oc4cnc5[nH]ccc5c4)c3)CC2)=C(c2ccc(Cl)cc2)C1` + CC(CO)NC(=O)c1cc(-c2ccc(Cl)cc2)nn(-c2cnn(C)c2)c1=O has an IC50 [1] of 6640 nM, an IC50 [2] of 4530 nM and an IC50 [3] of 5470 nM. It also gave an IC50 [4] of 3020 nM, an IC50 [5] of under 31.6 nM and a viability, T/C [6] of 77.7%. For the same compound, the viability, T/C [7] was 89.9%, the viability, T/C [8] was 96.2% and the viability, T/C [9] was 76.9%. The viability, T/C [26] was 82.5%, the viability, T/C [27] was 32.2% and the viability, T/C [10] was 85.2%. It also gave a viability, T/C [11] of 81.1%, a viability, T/C [12] of 70.2% and a viability, T/C [13] of 66.9%. The viability, T/C [28] was 65.9%, the viability, T/C [29] was 27.8% and the viability, T/C [14] was 89.3%. For the same compound, the viability, T/C [15] was 97.4%, the viability, T/C [16] was 80% and the viability, T/C [17] was 65%. For the same compound, the viability, T/C [30] was 79.2%, the viability, T/C [31] was 28.2% and the viability, T/C [18] was 80%. For the same compound, the viability, T/C [19] was 86.8%, the viability, T/C [20] was 77% and the viability, T/C [21] was 71.4%. For the same compound, the viability, T/C [32] was 49%, the viability, T/C [33] was 24% and the viability, T/C [22] was 45%. The viability, T/C [23] was 54.1%, the viability, T/C [24] was 48.9% and the viability, T/C [25] was 48.5%. The viability, T/C [34] was 48.2% and the viability, T/C [35] was 26.6%.
For `COc1cc(C2c3cc4c(cc3C(OC3OC5COC(C)OC5C(O)C3O)C3COC(=O)C23)OCO4)cc(OC)c1O` (configuration not stated) + Cc1ccccc1N=Nc1ccc(NC(=O)c2ccnn2C)c(C)c1, the IC50 [1] was 298 nM, the IC50 [2] was 243 nM and the IC50 [3] was 219 nM. The IC50 [4] was 149 nM, the IC50 [5] was under 31.6 nM and the viability, T/C [6] was 89.6%. For the same compound, the viability, T/C [7] was 98.8%, the viability, T/C [8] was 47.5% and the viability, T/C [9] was 20.2%. It also gave a viability, T/C [26] of 15.3%, a viability, T/C [27] of 13.3% and a viability, T/C [10] of 103%. For the same compound, the viability, T/C [11] was 71.3%, the viability, T/C [12] was 47.2% and the viability, T/C [13] was 19.9%. The viability, T/C [28] was 14.6%, the viability, T/C [29] was 13.7% and the viability, T/C [14] was 90.4%. It also gave a viability, T/C [15] of 76.6%, a viability, T/C [16] of 36.5% and a viability, T/C [17] of 23.9%. For the same compound, the viability, T/C [30] was 16.6%, the viability, T/C [31] was 14.6% and the viability, T/C [18] was 70.1%. The viability, T/C [19] was 56.9%, the viability, T/C [20] was 36.6% and the viability, T/C [21] was 19.1%. It also gave a viability, T/C [32] of 16.3%, a viability, T/C [33] of 16% and a viability, T/C [22] of 46.4%. The viability, T/C [23] was 44.6%, the viability, T/C [24] was 30.5% and the viability, T/C [25] was 22.4%. It also gave a viability, T/C [34] of 17.5% and a viability, T/C [35] of 15.9%.
